Measured values as given in paper PMC7352342, “Inhibition of Patched Drug Efflux Increases Vemurafenib Effectiveness against Resistant Braf^V600E Melanoma” (Cancers, 2020).
Like-named read-outs stand apart in the source and are kept apart here.

Legend:
[1] = test system: A375 cells; assay: BODIPY-cholesterol efflux measurement, A375 cells; format: cell-based, human; conditions: sPAH in efflux buffer, 30 min
[2] = Cytotoxicity assay (neutral red), WM9S cells; format: cell-based; conditions: human, WM9S melanoma cells; read-out: sPAH-IC50 (cytotoxicity of sPAH alone)
Experimental: (§1) Human melanoma cell lines A375 and MeWo were purchased from ATCC, and cultured in DMEM medium supplemented with 10% fetal bovine serum and penicillin/streptomycin (Invitrogen) at 37 °C in a 5% CO2/95% water-saturated air atmosphere. Melanoma cell lines SKMEL 28, SKMEL V3, WM9S, and WM9R were provided by Robert Ballotti (C3M, Nice, France). MeWo-dxrR cells were obtained by adding increasing concentrations of doxorubicin, up to 0.2 µM, in the culture medium over 6 months. These cells were grown in medium supplemented with 0.2 µM dxr. WM9R cells were obtained by adding increasing concentrations of vemurafenib, up to 5 µM, in the culture medium over 6 months. These cells were grown in medium supplemented with 5 µM vemurafenib. HEK cells were grown in 75 mm tissue culture dishes (Falcon, Franklin Lakes, NJ, USA) in Dulbecco’s modified Eagle’s medium (Gibco, Life Technologies, Saint Aubin, France) supplemented with 10% fetal calf serum (Hyclone, Thermo Fisher Scientific GMBH, Ulm, Germany) and 1% penicillin/streptomycin (Gibco, Life Technologies, Saint Aubin, France) in a humidified incubator at 37 °C (5% CO2).
(§2) Cells were seeded in 96-well plates in triplicate and grown in medium to achieve 70 to 80% confluence. […] Measurements were made in microplate readers (Multiskan Go Microplate Spectrophotometer from Thermo Scientific).

[3] = test system: WM9S cells; assay: Cytotoxicity assay (neutral red), WM9S cells; format: cell-based; conditions: WM9S; 24 h; sPAH between 10 and 20 µM
Experimental: as §1, §2

[4] = test system: A375 cells; assay: Wound-healing assay, A375 cells; format: cell-based, human; conditions: 48 h after wounding, sPAH added to vemurafenib
Experimental: Once cells were confluent in 24-well plates, a wound was created using a p200 tip. Two pictures were taken at two different points of each well immediately after wounding, and 48 h after wounding. Images were taken with Leica DM IRB (5×). The width of the wound was measured using ImageJ software and reported as percentage final wound width/initial wound width.

[5] = molecular target: T1, human Smoothened (Homo sapiens, UniProt Q99835); assay: Microscale thermophoresis on membranes from yeast expressing human Smoothened; format: binding; conditions: MST; sPAH 15 nM to 250 µM
T1 construct: made in house; host or cells: yeast (membrane preparation)
T1 sequence (Q99835 28-787): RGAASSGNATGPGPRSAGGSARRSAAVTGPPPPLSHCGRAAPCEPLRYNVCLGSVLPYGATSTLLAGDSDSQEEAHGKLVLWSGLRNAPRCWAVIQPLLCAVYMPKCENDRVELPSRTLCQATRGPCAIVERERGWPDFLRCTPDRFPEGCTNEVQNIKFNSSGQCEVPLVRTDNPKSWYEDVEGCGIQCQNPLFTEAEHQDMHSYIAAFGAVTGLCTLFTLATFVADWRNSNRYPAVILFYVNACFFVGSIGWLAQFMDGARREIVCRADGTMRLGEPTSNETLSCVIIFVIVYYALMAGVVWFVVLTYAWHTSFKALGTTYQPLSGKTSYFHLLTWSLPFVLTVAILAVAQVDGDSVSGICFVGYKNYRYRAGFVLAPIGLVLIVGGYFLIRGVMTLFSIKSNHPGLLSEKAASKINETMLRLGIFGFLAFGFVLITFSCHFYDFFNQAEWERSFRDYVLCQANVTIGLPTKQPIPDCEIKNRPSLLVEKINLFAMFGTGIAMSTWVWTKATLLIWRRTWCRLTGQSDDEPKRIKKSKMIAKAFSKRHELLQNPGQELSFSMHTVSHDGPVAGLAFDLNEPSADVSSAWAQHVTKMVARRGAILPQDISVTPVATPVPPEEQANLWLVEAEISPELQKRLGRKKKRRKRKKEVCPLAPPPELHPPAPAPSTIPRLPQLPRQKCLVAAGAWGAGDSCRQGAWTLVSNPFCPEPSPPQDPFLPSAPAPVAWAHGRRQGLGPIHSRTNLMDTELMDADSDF
Experimental: Microscale thermophoresis (MST) is a biophysical technique that measures the strength of the interaction between two molecules by detecting a variation in the fluorescence signal of a fluorescently labeled target as a result of an IR-laser induced temperature change. The range of the variation in the fluorescence signal correlates with the binding of a ligand to the fluorescent target.
Membranes from yeast expressing human Ptch1 or human Smoothened were incubated at 30 µg/mL with 20 nM of the fluorescent dye NT-647 2nd gen (NanoTemper Technologies, München, Germany) to label the His-tag present at the c-terminus of both proteins. […] The fluorescence within the capillary is excited and detected through the same objective. […] The MST response of fluorescent proteins within the temperature gradient is detected. After activation of the IR laser, a decrease in fluorescence is observed which corresponds to temperature-related intensity change (TRIC) triggered by the fast temperature change and thermophoretic movement of the fluorescent proteins out of the heated sample volume. […] For analysis, the change in MST signal is expressed as the change in the normalized fluorescence (Fnorm), which is defined as F1/F0. […] The sPAH Kd was determined for 3 independent experiments.

[6] = test system: chick embryos; assay: sPAH toxicity on chick embryos; format: in vivo; conditions: 10 days
Experimental: These experiments were performed by the company INOVOTION (La Tronche, France). […] At this time (E9), an access point to the chorioallantoic membrane (CAM) was made by drilling a small hole through the eggshell into the air sac and a 1 cm^2 window was cut in the eggshell above the CAM. Twenty-one eggs were used for each condition. […] MeWo cells cultivated in DMEM medium with 10% FBS (and 1% penicillin/streptomycin) were detached with trypsin, washed with complete medium, labeled, and suspended in PBS. An inoculum of 3 × 10^6 cells was added onto the CAM of each egg (E9). Eggs were then randomized in 4 groups. The chick embryos were then treated every two days (E11, E13, E15, E17) for 10 days in total, by adding 100 µL of vehicle (1% DMSO in PBS) as a negative control or 100 µL of sPAH at 3 different doses onto the CAM. The number of dead embryos evaluates the toxicity after 10 days of the treatment, as does the observation of 22 abnormality checkpoints in surviving embryos.

[7] = Cytotoxicity assay (neutral red), MeWo cells; format: cell-based, human; conditions: human, MeWo melanoma cells, MeWo; 24 or 48 h; read-out: sPAH-IC50 (cytotoxicity of sPAH alone)
Experimental: as §1
(§3) Cells were seeded in 96-well plates in triplicate and grown in medium to achieve 70 to 80% confluence. Medium was then removed and replaced with 100 µL/well of complete medium containing PAH or DMSO as a control. After 2 h, 100 µL of complete medium containing serial dilutions of dxr, cisplatin or vemurafenib were added. Plates were incubated at 37 °C and 5% CO2. After 24 or 48 h, cells were incubated for 3 h at 37 °C with 100 µL/well neutral red (NR) solution (50 µg/mL in medium) following the manufacturer’s protocol. Measurements were made in microplate readers (Multiskan Go Microplate Spectrophotometer from Thermo Scientific).

[8] = test system: MeWo cells; assay: Cytotoxicity assay (neutral red), MeWo cells; format: cell-based, human
Experimental: as §1, §3

COc1cc(C)c(CC/C(C)=C/Cc2cc(O)ccc2O)c(C)c1C [sPAH, Panicein A hydroquinone]
efflux of BODIPY-cholesterol [1]: inhibited the efflux of cholesterol
IC50 [2]: 28.6 ± 5.1 µM
sensitivity of cells to vemurafenib in the presence of sPAH [3]: significantly increased
effect on vemurafenib efficacy against cell migration [4]: increased vemurafenib efficacy
binding to membranes from yeast expressing Smoothened [5]: does not bind
abnormalities in surviving embryos (22 checkpoints) ([6]; 100 µM to 1 mM): no abnormalities were observed
acute toxicity ([6]; up to the highest dose of 1 mM): No acute toxicity was observed
IC50 [7]: 36 ± 2.3 µM
IC50 ([8]; MeWo cells, 2 µM Dxr present, listed as Synthetic PAH, read-out: IC50 of PAH at 2 µM Dxr): 8.1 ± 1.3 µM
IC50 ([8]; MeWo, 24 or 48 h, read-out: sPAH-IC50 (cytotoxicity of sPAH alone)): ~40 µM
IC50 of cisplatin in the presence of sPAH ([8]; MeWo, sPAH 20 µM vs DMSO (Figure S2)): significantly decreased
